{"source": "patent US8173441B2", "about": "“Method for applying NMR for ligand discovery or as a drug screening tool” (Universiteit Leiden, priority 2001, dated 2012)", "key": {"[1]": {"molecular_target": "T1, C-terminal SH2 domain (CSH2) from the 85 kDa, alpha form of the regulatory subunit of bovine phosphoinositide 3′ kinase (Bos taurus, UniProt P23727)", "T1 construct": "the c-terminal SH2 domain of p85alpha was prepared as previously described by Siegal et al; made in house", "T1 sequence (P23727 624-718 limits assumed)": "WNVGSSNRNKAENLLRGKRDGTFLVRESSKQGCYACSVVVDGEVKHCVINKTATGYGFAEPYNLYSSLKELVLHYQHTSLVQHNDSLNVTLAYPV", "test": "Target immobilized NMR screening (TINS): 1H-NMR difference spectrum, control resin vs resin with CSH2 covalently bound", "format": "binding", "settings": "1 mM each compound in D2O, d11-Tris pH 7.5, 50 mM NaCl, CSH2 on Actigel ALD resin", "source_text": "In this example, it was aimed to investigate whether binding of a small molecule to a target bound to the resin would be detectable in the ^1H spectrum. The test system utilized the C-terminal SH2 domain (CSH2) from the 85 kDa, alpha form of the regulatory subunit of bovine phosphoinositide 3′ kinase. This small (110 residues) protein domain has well characterized binding specificity.\nTo see whether the method of the present invention provides a mode appropriate for efficient screening of a large library of compounds, CSH2 was immobilized on a chemically activated chromatography resin of Actigel ALD by covalent attachment. Attachment occurs via primary amines on the surface of CSH2 as described in the manufacturers literature and therefore is (approximately) randomly oriented.\nIn detail, the c-terminal SH2 domain of p85alpha was prepared as previously described by Siegal et al. in J. Mol. Biol. 276(1998), 461-478. 11 mg of this domain CSH2 in a buffer consisting of 25 mM HEPES pH 7.5 and 100 mM NaCl was incubated with 1 ml of Actigel ALD (Sterogene, Carlsbad, Calif., USA) according to the manufacturers protocol. This amount corresponds to a 1 mM solution concentration. Unbound sites on the gel were blocked using d11-Tris (Cambridge Isotopes, Andover, Mass., USA). The control resin was derivatized exclusively with d11-Tris.\nThe potential ligands were dissolved in 99% D2O with d11-Tris.\nIn all cases, the control and experimental target containing resins were washed three times with the same mixture of test substances.\nAll NMR spectra were recorded on a Bruker (Bruker, Germany) DMX 600 spectrometer. Spectra typically consisted of 16 to 64 transients of 2 k complex points, were apodized using a sin^2 function and automatically baseline corrected using the supplied XWINNMR software provided by the manufacturer, Bruker, and methods described in the manufacturers literature. Difference spectra were also calculated using XWINNMR"}, "[2]": {"tested_on": "26 base synthetic double stranded 5′ biotinylated oligonucleotide (DNA)", "test": "TINS: 1H-NMR difference spectrum, streptavidin-sepharose resin vs resin with biotinylated oligonucleotide bound", "format": "binding", "settings": "1 mM solution in D2O; oligonucleotide on streptavidin-sepharose resin"}, "SH2 domain (CSH2)": {"molecular_target": "SH2 domain (CSH2) (Bos taurus, UniProt P23727)", "sequence (P23727 624-718 limits assumed)": "as above", "settings": "mimic of the natural ligand; cited from earlier work"}}, "note": "Entries after “also recorded” stand apart in the source; their conditions may differ.", "data": [{"smiles": "N=C(N)NCCC[C@H](N)C(=O)O", "note": "[arginine]", "values": [{"measurement": "binding to immobilized CSH2 (diminution of peaks / peaks in the difference spectrum)", "setting": "[1]", "result": "do not bind"}, {"measurement": "binding to immobilized oligonucleotide (peaks in the difference spectrum)", "setting": "[2]", "result": "do not bind"}]}, {"smiles": "NCC(=O)O", "note": "[glycine]", "values": [{"measurement": "binding to immobilized CSH2 (diminution of peaks / peaks in the difference spectrum)", "setting": "[1]", "result": "do not bind"}]}, {"smiles": "c1c[nH]cn1", "note": "[imidazole, Imidazole]", "values": [{"measurement": "binding to immobilized oligonucleotide (peaks in the difference spectrum)", "setting": "[2]", "result": "do not bind"}]}, {"smiles": "CSCC[C@H](N)C(=O)O", "note": "[methionine]", "values": [{"measurement": "binding to immobilized CSH2 (diminution of peaks / peaks in the difference spectrum)", "setting": "[1]; listed as M", "result": "small residual peaks; also recorded: Weak binding"}]}, {"smiles": "N[C@@H](Cc1ccc(OP(=O)(O)O)cc1)C(=O)O", "note": "[phosphotyrosine]", "values": [{"measurement": "binding to immobilized CSH2 (diminution of peaks / peaks in the difference spectrum)", "setting": "[1]", "result": "only peaks derived from phosphotyrosine"}, {"measurement": "binding to immobilized CSH2 (diminution of peaks / peaks in the difference spectrum)", "setting": "[1]; listed as pY", "result": "clear diminution of the peaks; also recorded: relatively tight binding"}, {"measurement": "Kd", "setting": "SH2 domain (CSH2)", "result": "~600", "unit": "µM"}, {"measurement": "binding to immobilized oligonucleotide (peaks in the difference spectrum)", "setting": "[2]", "result": "do not bind"}]}, {"smiles": "NCCCNCCCCNCCCN", "note": "[spermine]", "values": [{"measurement": "binding to immobilized oligonucleotide (peaks in the difference spectrum)", "setting": "[2]", "result": "Only peaks derived from spermine; also recorded: can be detected; also recorded: only spermine peaks remain"}]}]}
